The source of these data is US10329307B2, “Heterocyclic compounds as inhibitors of platelet aggregation” (UNIVERSITE DE MONTREAL, priority 2015, dated 2019).

In this test the target is PAR4 (Homo sapiens (Human), UniProt Q96RI0). The test is described as follows: FLIPR assay in PAR4-expressing HEK293 cells (PAR4 antagonist activity). The format is cell-based. The following applies: H-Ala-Phe(4-F)-Pro-Gly-Trp-Leu-Val-Lys-Asn-Gly-NH2-induced intracellular calcium mobilization, 11-point curves. The text has this:
The FLIPR assay is an exemplary in vitro assay for measuring the activity of the PAR4 antagonists of the present invention. In this assay, intracellular calcium mobilization is induced in PAR4 expressing cells by a PAR4 agonist and calcium mobilization is monitored. See, e.g., Example A.
HEK293 cells stably expressing PAR4 were generated by a standard method of transfection of human […] cDNA expression vector or by RAGE technology from Athersys Inc. (Cleveland, Ohio) and selected based on PAR4 protein expression of mRNA expression. […] These cells express endogenous PAR1 and can elicit calcium signal upon stimulation with PAR1 agonist peptide. Cells were grown in Dulbecco's Modified Eagle's Medium (DMEM) (Invitrogen, Carlsbad, Calif.), 10% FBS, 1% PSG, 3 μg/ml puromycin and 25 nM Methotrexate) at 37° C. with 5% CO2.
FLIPR-based calcium mobilization assay in HEK293 cells was used to measure PAR4 antagonism, agonism, and selectivity against PAR1. […] Counter screens for agonist activity and PAR1 antagonist activity were also performed. Briefly, PAR1/PAR4-expressing HEK293 cells were grown in DMEM (Life Technology, Grand Island, N.Y.) containing 10% heat-inactivated FBS, 1% Penicillin-Streptomycin, 10 μg/mL blasticidin, and 100 μg/mL Zeocin at 37° C. with 5% CO2. Cells were plated overnight prior to the experiment in a black 384-well Purecoat Amine clear bottom plate (Becton Dickinson Biosciences, San Jose, Calif.) at 10,000 cells/well in 30 μL growth medium and incubated in a humidified chamber at 37° C. with 5% CO2 overnight. Prior to compound addition, the cell medium was replaced with 40 μL of 1× calcium and magnesium-containing Hank's Balanced Saline Solution (HBSS) (with 20 mM HEPES) and 1:1000 diluted fluorescent calcium indicator (Codex Biosolutions, Gaithersburg, Md.). After a 30 minute incubation period at 37° C. and a further 30 minute incubation and equilibration period at room temperature, 20 μL test compound (diluted in 1×HBSS buffer) was added at various concentrations at 0.17% dimethyl sulfoxide (DMSO) final concentration. Changes in fluorescence intensity were measured using a Functional Drug Screening System (FDSS, Hamamatsu, Japan) to determine agonist activities. The cells were then incubated for 30 minutes at room temperature followed by addition of 20 μL of agonist peptide for antagonist activity measurement. […] Compound potency was derived from 11-point concentration-response curves.
As indicated above, the FLIPR assay, an in vitro assay, measures the PAR4 antagonist activity of compounds tested as described in Example A.
Background: A change in cytosolic calcium serves as a functional read-out for many receptors and channels.

Sequence of PAR4 (Q96RI0 18-385): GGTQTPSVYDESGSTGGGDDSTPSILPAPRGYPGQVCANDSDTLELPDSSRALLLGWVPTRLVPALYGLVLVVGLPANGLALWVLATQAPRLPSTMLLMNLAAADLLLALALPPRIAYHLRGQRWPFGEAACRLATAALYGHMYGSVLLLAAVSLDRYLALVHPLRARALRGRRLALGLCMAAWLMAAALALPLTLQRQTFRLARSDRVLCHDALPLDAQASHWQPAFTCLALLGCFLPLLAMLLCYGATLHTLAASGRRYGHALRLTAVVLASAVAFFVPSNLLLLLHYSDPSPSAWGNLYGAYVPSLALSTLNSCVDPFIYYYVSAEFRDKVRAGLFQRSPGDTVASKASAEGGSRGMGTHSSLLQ

The IC50 is the concentration that inhibits the measured activity by half. `COc1ccc(N2CCN(C(=O)C3CC3)CC2COc2cc(OC)cc3oc(-c4cn5nc(C)ccc5n4)cc23)cc1` (stereo not drawn) [Example 6, cyclopropyl(3-(((6-methoxy-2-(6-methylimidazo[1,2-b]pyridazin-2-yl)benzofuran-4-yl)oxy)methyl)-4-(4-methoxyphenyl)piperazin-1-yl)methanone]: the IC50 came to 15000 nM.
`COc1cc(OCC2CCCN(c3ccc(N)nc3)C2)c2cc(-c3cn4nc(OC)sc4n3)oc2c1` (stereo not drawn) [Example 74]: the IC50 was determined as 28000 nM.
For `COc1cc(OC[C@H]2CCCN(c3ccc(Cl)cc3)C2)c2cc(-c3cn4nc(OC)sc4n3)oc2c1` [Example 35] the value was 840 nM; for `COc1cc(OC[C@H]2CCC(=O)N2c2ccc(F)cc2)c2cc(-c3cn4nc(OC)sc4n3)oc2c1` [Example 14], 12000 nM; for `COc1ccc(N2CCC[C@@H]2COc2cc(OC)cc3oc(-c4cn5nc(OC)sc5n4)cc23)cc1` [Example 10], 390 nM.
Turning to `COc1cc(OC[C@H]2CCCN2c2ccc(C#N)cc2)c2cc(-c3cn4nc(OC)sc4n3)oc2c1` [Example 1, (R)-4-(2-(((6-methoxy-2-(2-methoxyimidazo[2,1-b][1,3,4]thiadiazol-6-yl)benzofuran-4-yl)oxy)methyl)pyrrolidin-1-yl)benzonitrile], the IC50 was determined as 420 nM.
For `COc1ccc(N2CCN(C(=O)c3ccccc3)CC2COc2cc(OC)cc3oc(-c4cn5nc(C)ccc5n4)cc23)cc1` (stereo not drawn) [Example 5, (3-(((6-methoxy-2-(6-methylimidazo[1,2-b]pyridazin-2-yl)benzofuran-4-yl)oxy)methyl)-4-(4-methoxyphenyl)piperazin-1-yl)(phenyl)methanone] the value was 24000 nM; for `CCOC(=O)c1cnc(N2CCCC(COc3cc(OC)cc4oc(-c5cn6nc(OC)sc6n5)cc34)C2)s1` (stereo not drawn) [Example 61], 1500 nM.
`COc1cc(OC[C@@H]2CCCN2c2ccc(OC(F)(F)F)cc2)c2cc(-c3cn4nc(OC)sc4n3)oc2c1` [Example 23]: the IC50 was 600 nM.
For the compound `COc1cc(OCC2CCN(c3ccc(C#N)cc3)CC2)c2cc(-c3cn4nc(OC)sc4n3)oc2c1` [Example 48], the IC50 is 1100 nM.
On to `COc1cc(OCC2CCCN(c3ccc(C(F)(F)F)cc3)C2)c2cc(-c3cn4nc(OC)sc4n3)oc2c1` (stereo not drawn) [Example 39], for which the IC50 stood at 510 nM.
`CCOC(=O)c1ccc(N2CCCCC2COc2cc(OC)cc3oc(-c4cn5nc(OC)sc5n4)cc23)cc1` (stereo not drawn) [Example 45]: the IC50 was found to be 370 nM.
With `COc1cc(OCC2CCCN(c3ccc(NC(=O)C(F)(F)F)nc3)C2)c2cc(-c3cn4nc(OC)sc4n3)oc2c1` (stereo not drawn) [Example 71], the IC50 turned out to be 1300 nM.
With `COc1cc(OC[C@@H]2CCCN(c3ccc(C#N)cc3)C2)c2cc(-c3cn4nc(OC)sc4n3)oc2c1` [Example 28], the half-inhibitory concentration (IC50) is 1800 nM.
In the case of `COc1ccc(N2CCNCC2COc2cc(OC)cc3oc(-c4cn5nc(C)ccc5n4)cc23)cc1` (stereo not drawn) [Example 4, 2-(6-methoxy-4-((1-(4-methoxyphenyl)piperazin-2-yl)methoxy)benzofuran-2-yl)-6-methylimidazo[1,2-b]pyridazine] it was 460000 nM.
Regarding `COc1cc(OCC2CCCN(c3ccc(Cl)cn3)C2)c2cc(-c3cn4nc(OC)sc4n3)oc2c1` (stereo not drawn) [Example 64], the IC50 turned out to be 820 nM.
In the case of `COc1cc(OCC2CCCN(c3ccc(Cl)cn3)C2)c2cc(-c3cn4nc(OC)sc4n3)oc2c1` (single isomer, unassigned) [Example 65] it was 1000 nM.
For the compound `COc1cc(OCC2CCCN(c3nncs3)C2)c2cc(-c3cn4nc(OC)sc4n3)oc2c1` (stereo not drawn) [Example 60], the 50% inhibitory concentration (IC50) came out at 2700 nM.
On to `COc1ccc(N2CCCC(COc3cc(OC)cc4oc(-c5cn6nc(OC)sc6n5)cc34)C2)nc1` (stereo not drawn) [Example 32], for which the IC50 came out at 2800 nM.
`COc1cc(OCC2CCCN(c3ccc(Cl)cn3)C2)c2cc(-c3cn4nc(OC)sc4n3)oc2c1` (stereo not drawn) [Example 63]: the IC50 worked out at 860 nM.
As to `COc1cc(OC[C@H]2CCCN(C(=O)OCc3ccccc3)C2)c2cc(-c3cn4nc(OC)sc4n3)oc2c1` [Example 59], the IC50 was 1200 nM.
As to `COc1ccc(N2CC[C@@H](COc3cc(OC)cc4oc(-c5cn6nc(OC)sc6n5)cc34)C2)cc1` [Example 26], the IC50 turned out to be 1400 nM.
Turning to `COc1cc(OC[C@H]2CCCN2c2ccc(F)cc2)c2cc(-c3cn4nc(OC)sc4n3)oc2c1` [Example 11], the IC50 is 740 nM.
In the case of `COc1cc(OC[C@@H]2CCCN(c3ccccc3)C2)c2cc(-c3cn4nc(OC)sc4n3)oc2c1` [Example 53], the IC50 was 1800 nM.
